Data reported in EP1935986B1, “Luminogenic and fluorogenic compounds and methods to detect molecules or conditions” (priority 2005, dated 2006).

Tests used:
beta-glucuronidase (GUS) = target: T1, beta-glucuronidase (GUS) (Homo sapiens, UniProt P08236); assay: Beta-glucuronidase assay with luciferin 6'-glucuronide (luminescent) or 4-methylumbelliferyl glucuronide (fluorescent); format: biochemical; conditions: for limit-of-detection: GUS enzyme detected, luminescent vs fluorescent substrate; for luminescence, + GUS: pH 6.3, 15 minutes
T1 construct: purchased Sigma-Aldrich
T1 sequence (P08236 23-651): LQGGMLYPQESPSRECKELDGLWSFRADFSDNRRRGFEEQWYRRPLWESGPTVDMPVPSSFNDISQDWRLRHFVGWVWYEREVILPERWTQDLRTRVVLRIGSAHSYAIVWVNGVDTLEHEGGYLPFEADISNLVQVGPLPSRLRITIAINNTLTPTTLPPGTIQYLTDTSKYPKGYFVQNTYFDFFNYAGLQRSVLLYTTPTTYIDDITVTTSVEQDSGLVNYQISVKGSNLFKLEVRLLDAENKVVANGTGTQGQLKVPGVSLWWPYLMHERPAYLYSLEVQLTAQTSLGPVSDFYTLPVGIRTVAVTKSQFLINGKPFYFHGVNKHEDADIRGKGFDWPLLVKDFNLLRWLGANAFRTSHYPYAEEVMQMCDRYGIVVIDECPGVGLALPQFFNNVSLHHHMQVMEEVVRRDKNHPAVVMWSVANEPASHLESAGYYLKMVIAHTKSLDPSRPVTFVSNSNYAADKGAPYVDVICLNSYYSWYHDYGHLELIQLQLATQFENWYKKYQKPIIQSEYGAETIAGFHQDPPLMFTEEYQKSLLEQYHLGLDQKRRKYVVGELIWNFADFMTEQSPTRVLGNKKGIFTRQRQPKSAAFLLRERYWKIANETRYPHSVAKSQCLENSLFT
Procedure: The source of the human enzyme was Sigma-Aldrich. GUS was incubated with the substrate in 50 mM MES, pH 6.3, for 15 minutes. […]

QuantiLum Luciferase [1] = target: T2, QuantiLum Luciferase (Photinus pyralis, UniProt P08659); assay: Firefly luciferase reaction with luciferin derivatives: light emission over time (with or without ATP, EDTA, coenzyme A, DTT); format: biochemical; set-up: unit not given here
T2 construct: purchased Promega Corporation E170
Procedure: Gel and HPLC stop solution. Solid EDTA (free acid) was placed in a beaker with water and the pH of the solution adjusted to pH 7.0. The solution was then adjusted in volume to produce a solution 400 mM in EDTA.
Enzyme stop solution. A solution was prepared containing 20 mM Bis Tris, pH 6.5, 2 mM EDTA and 1mg/ml bovine serum albumin.
Reaction buffer (2X). A solution was made containing 100 mM HEPES buffer, pH 8.0; 10 mM MgCl2.
DTT stock. Solid DTT (dithiothreatol) was dissolved in water and then adjusted to pH 8.0 with solid sodium hydroxide. The solution was then adjusted in volume to produce a solution 1 M in DTT.
(§1) After producing the solutions in Table 37, the volume of all reactions was adjusted to 990 µl with water. […] While the light reading was being taken, a 10 µl sample of the reaction was diluted to 500 µl with enzyme stop solution (cooled on ice to 4°C) mixed and placed on ice and a second sample of 90 µl of reaction was added to 10 µl of Gel/HPLC stop and the tube placed at -20°C. A timer was started with the start of the first reaction and the start times of the remaining reactions was noted. At 15, 30, 45 and 60 minutes, each reaction was sampled as above and the light produced in the luminometer tubes was measured. At 7 and 22 minutes, the light produced in the luminometer tubes was read, but the reactions were not sampled.
as §1, with “40,” for “37,”

QuantiLum Luciferase [2] = target: T2, QuantiLum Luciferase; assay: Residual active luciferase after reaction with luciferin derivatives (Steady Glo); format: biochemical, firefly; set-up: unit not given here
Procedure: as §1
After all samples were taken, 50 µl of the sample diluted into enzyme stop solution was mixed with 50 µl of Steady Glo Luciferase Reagent (Promega) and the light produced measured after incubating at room temperature for 10 minutes. This measured the active luciferase in the initial reaction.
as §1, with “40,” for “37,”

luciferase = assay: No-enzyme control: activity of luciferase towards the luciferin derivative (background luminescence); conditions: no GUS, 50 mM MES, pH 6.3
Procedure: The reactions (Table 1) were assembled by first adding the water and 1 M BisTris solutions in individual 0.5 ml microfuge tubes, then adding the other components except for the GST #3 solution. Finally, the GST #3 (Figure 12) solution was added to the reactions, the resulting solution was mixed, and the time of addition noted. […]
The GST #3 addition was performed last and the solutions were mixed immediately after addition of GST #3. […] After mixing, the light produced by the solution was measured using a Turner TD 20/20 luminometer.
After assembly, the enzyme stock solutions were diluted 1:10 into 10 mM HEPES, pH 7.5 and the following additions were made to the reactions.
A 5 µl sample of the luciferol DMF solution was added to each of the reactions above and a timer was started upon the addition of the first luciferol/DMF solution to reaction 1. All reactions were kept at room temperature.
After incubating 5 minutes at room temperature, the light produced by these samples was measured using a Turner TD 20 luminometer.
To initiate the conversions, 5 µl of luciferol solution was added to reactions […], 6-9, and 11-15, and 10 µl of luciferol was added to reactions 5 and 10 and the tubes mixed after that addition. Immediately after luciferol addition to reaction 1, a timer was started and the time of luciferol addition to the other tubes noted. After mixing, reaction 11-15 were placed at 37°C.
After incubating 10 minutes at room temperature, the light produced by these samples was read using a Turner TD 20 luminometer (Table 18).
To initiate Step 1, 45 µl of enzyme and buffer were added to each well.
Solution A and Solution B are components of the NADPH Regeneration System (V9510, Promega Corp., Madison WI). […] Solution B contains 40 units/ml glucose-6-phosphate dehydrogenase in 5 mM citrate pH 5.5.

T2 sequence (P08659 whole entry): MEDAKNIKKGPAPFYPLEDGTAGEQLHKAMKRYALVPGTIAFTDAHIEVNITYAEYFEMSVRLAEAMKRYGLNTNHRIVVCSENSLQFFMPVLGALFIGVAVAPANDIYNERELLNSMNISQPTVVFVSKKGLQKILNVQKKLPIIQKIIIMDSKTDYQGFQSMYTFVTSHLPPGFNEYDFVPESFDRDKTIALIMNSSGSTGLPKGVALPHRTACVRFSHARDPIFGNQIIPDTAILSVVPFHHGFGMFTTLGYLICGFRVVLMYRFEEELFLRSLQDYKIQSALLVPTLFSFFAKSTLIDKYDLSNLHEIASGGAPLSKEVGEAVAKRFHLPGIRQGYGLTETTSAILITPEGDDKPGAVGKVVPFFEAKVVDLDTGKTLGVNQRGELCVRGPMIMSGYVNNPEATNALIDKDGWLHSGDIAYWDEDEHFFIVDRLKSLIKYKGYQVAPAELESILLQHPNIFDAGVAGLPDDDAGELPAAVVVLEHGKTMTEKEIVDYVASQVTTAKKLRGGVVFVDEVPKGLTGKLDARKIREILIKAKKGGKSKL

For `Cc1cc(=O)oc2cc(O[C@@H]3O[C@H](C(=O)O)[C@@H](O)[C@H](O)[C@H]3O)ccc12` [4-methylumbelliferyl glucuronide, reference compound], the Km (beta-glucuronidase (GUS); 50 mM MES, pH 6.3) was 59 ± 8 µM and the limit-of-detection (beta-glucuronidase (GUS)) was 2.01 ng/mL.
With `O=C(O)[C@H]1CSC(c2nc3ccc(OCc4ccccc4)cc3s2)=N1` [Luc'in BE] the “Light reading at time” value (QuantiLum Luciferase [1]; +Co A, 7 min) was 11.92, the “Light reading at time” value (QuantiLum Luciferase [1]; +Co A, 22 min) was 9.941 and the “Light reading at time” value (QuantiLum Luciferase [1]; +CoA, 0 min) was 139.5. For the same compound, the “Light reading at time” value (QuantiLum Luciferase [1]; +CoA, 15 min) was 10.99, the “Light reading at time” value (QuantiLum Luciferase [1]; +CoA, 30 min) was 7.379 and the “Light reading at time” value (QuantiLum Luciferase [1]; +CoA, 45 min) was 7.284. The “Light reading at time” value (QuantiLum Luciferase [1]; +CoA, 60 min) was 6.433, the “Light reading at time” value (QuantiLum Luciferase [1]; +DTT, 0 min) was 948 and the “Light reading at time” value (QuantiLum Luciferase [1]; +DTT, 7 min) was 532.8. The “Light reading at time” value (QuantiLum Luciferase [1]; +DTT, 15 min) was 417, the “Light reading at time” value (QuantiLum Luciferase [1]; +DTT, 22 min) was 369.5 and the “Light reading at time” value (QuantiLum Luciferase [1]; +DTT, 30 min) was 331.6. The “Light reading at time” value (QuantiLum Luciferase [1]; +DTT, 45 min) was 273.5, the “Light reading at time” value (QuantiLum Luciferase [1]; +DTT, 60 min) was 226.9 and the “Light reading at time” value (QuantiLum Luciferase [1]; No addition, 0 min) was 135.2. The “Light reading at time” value (QuantiLum Luciferase [1]; No addition, 7 min) was 22.61, the “Light reading at time” value (QuantiLum Luciferase [1]; No addition, 15 min) was 12.79 and the “Light reading at time” value (QuantiLum Luciferase [1]; No addition, 22 min) was 9.256. The “Light reading at time” value (QuantiLum Luciferase [1]; No addition, 30 min) was 6.928, the “Light reading at time” value (QuantiLum Luciferase [1]; No addition, 45 min) was 4.879 and the “Light reading at time” value (QuantiLum Luciferase [1]; No addition, 60 min) was 3.311. The “Light reading at time” value (QuantiLum Luciferase [1]; w/o ATP, 0 min) was 0.015, the “Light reading at time” value (QuantiLum Luciferase [1]; w/o ATP, 7 min) was 0 and the “Light reading at time” value (QuantiLum Luciferase [1]; w/o ATP, 15 min) was 0.008. The “Light reading at time” value (QuantiLum Luciferase [1]; w/o ATP, 22 min) was 0.005, the “Light reading at time” value (QuantiLum Luciferase [1]; w/o ATP, 30 min) was 0 and the “Light reading at time” value (QuantiLum Luciferase [1]; w/o ATP, 45 min) was 0. The “Light reading at time” value (QuantiLum Luciferase [1]; w/o ATP, 60 min) was 0.01, the “Light reading from residual active enzyme at time” value (QuantiLum Luciferase [2]; +CoA, 0 min) was 186.7 and the “Light reading from residual active enzyme at time” value (QuantiLum Luciferase [2]; +CoA, 15 min) was 179.6. For the same compound, the “Light reading from residual active enzyme at time” value (QuantiLum Luciferase [2]; +CoA, 30 min) was 179.4, the “Light reading from residual active enzyme at time” value (QuantiLum Luciferase [2]; +CoA, 45 min) was 157.9 and the “Light reading from residual active enzyme at time” value (QuantiLum Luciferase [2]; +CoA, 60 min) was 161.8. The “Light reading from residual active enzyme at time” value (QuantiLum Luciferase [2]; No addition, 0 min) was 129.7, the “Light reading from residual active enzyme at time” value (QuantiLum Luciferase [2]; No addition, 15 min) was 69.9 and the “Light reading from residual active enzyme at time” value (QuantiLum Luciferase [2]; No addition, 30 min) was 47.31. The “Light reading from residual active enzyme at time” value (QuantiLum Luciferase [2]; No addition, 45 min) was 37.94, the “Light reading from residual active enzyme at time” value (QuantiLum Luciferase [2]; No addition, 60 min) was 29.08 and the “Light reading from residual active enzyme at time” value (QuantiLum Luciferase [2]; w/o ATP, 0 min) was 168.3. For the same compound, the “Light reading from residual active enzyme at time” value (QuantiLum Luciferase [2]; w/o ATP, 15 min) was 174.1, the “Light reading from residual active enzyme at time” value (QuantiLum Luciferase [2]; w/o ATP, 30 min) was 171.7 and the “Light reading from residual active enzyme at time” value (QuantiLum Luciferase [2]; w/o ATP, 45 min) was 172.9. For the same compound, the “Light reading from residual active enzyme at time” value (QuantiLum Luciferase [2]; w/o ATP, 60 min) was 164.
`O=C(O)[C@H]1O[C@@H](Oc2ccc3nc(C4=N[C@@H](C(=O)O)CS4)sc3c2)[C@H](O)[C@@H](O)[C@@H]1O` [Luciferin 6'-glucuronide] was tested, and the limit-of-detection (beta-glucuronidase (GUS)) was 0.28 ng/mL, the “signal-to-noise, luminescence” value (beta-glucuronidase (GUS); [GUS] 4.3 ng/ml) was 68 and the “signal-to-noise, luminescence” value (beta-glucuronidase (GUS); [GUS] 8.7 ng/ml) was 133. The “signal-to-noise, luminescence” value (beta-glucuronidase (GUS); [GUS] 34.7 ng/ml) was 649, the “signal-to-noise, luminescence” value (beta-glucuronidase (GUS); [GUS] 69.4 ng/ml) was 1411 and the “signal-to-noise, luminescence” value (beta-glucuronidase (GUS); [GUS] 138.8 ng/ml) was 3104. The “signal-to-noise, luminescence” value (beta-glucuronidase (GUS); [GUS] 277.5 ng/ml) was 7300.
For `O=C(O)[C@H]1O[C@@H](Oc2ccc3nc(C4=N[C@@H](C(=O)O)CS4)sc3c2)[C@H](O)[C@@H](O)[C@@H]1O` [drawing 190], the “luminescence, + GUS” value (beta-glucuronidase (GUS); [substrate] 3.5 uM, 50 mM MES) was 46,210, the “luminescence, + GUS” value (beta-glucuronidase (GUS); [substrate] 31.5 uM, 50 mM MES) was 232,533 and the “luminescence, + GUS” value (beta-glucuronidase (GUS); [substrate] 94.4 uM, 50 mM MES) was 423,619. For the same compound, the “luminescence, + GUS” value (beta-glucuronidase (GUS); [substrate] 283.1 uM, 50 mM MES) was 696,778, the “luminescence, + GUS” value (beta-glucuronidase (GUS); [substrate] 849.3 uM, 50 mM MES) was 994,977 and the “luminescence, + GUS” value (beta-glucuronidase (GUS); [substrate] 2548.0 uM, 50 mM MES) was 1,335,243. The “luminescence, + GUS” value (beta-glucuronidase (GUS); [substrate] […], 50 mM MES) was 107,502, the “luminescence, no GUS” value (luciferase; [substrate] 3.5 uM) was 1,108 and the “luminescence, no GUS” value (luciferase; [substrate] 31.5 uM) was 5,068. For the same compound, the “luminescence, no GUS” value (luciferase; [substrate] 94.4 uM) was 13,091, the “luminescence, no GUS” value (luciferase; [substrate] 283.1 uM) was 34,127 and the “luminescence, no GUS” value (luciferase; [substrate] 849.3 uM) was 91,975. The “luminescence, no GUS” value (luciferase; [substrate] 2548.0 uM) was 209,219 and the “luminescence, no GUS” value (luciferase; [substrate] […]) was 2,190.
